Data set [1] in a line: Log Kow. The class given is physicochemical.
The nature of data set [2]: Permeation through the stratum corneum of human cadaver skin. The class given is in vitro ADME. The following applies: cumulative permeation over time, FIG. 33. The text has this:
FIG. 33. Ketoprofen chemistry. (A) Chemical formula of ketoprofen. (B) Ester modification to improve bioavailability. […] Closed triangles: Methyl ester. Open circles: ethyl ester. Open squares: isopropyl ester. x axis=time in hours.

For data set [3], the system named is tail lymphedema in SKH-1 mice. Put plainly: Tail volume quantitation, NSAID / sTNF-R1 treatment (Example 4). The class given is in vivo, mouse. The protocol:
Tail lymphedema was induced in female hairless, immunocompetent SKH-1 mice (Charles River Laboratories, Boston, Mass.) as described. The mice were anesthetized with a solution of ketamine, xylazine, and saline (0.07 ml i.p.). The skin of the tail was circumferentially incised 16 mm distal to its base. The major lymphatic trunks were identified by subcutaneous injection of methylene blue distal to the incision and ablated by limited cautery. The mice were carefully monitored for any visceral signs of distress. Sham surgery controls were treated identically, but without lymphatic cautery. […] All mice were sacrificed in accordance with American Veterinary Medical Association guidelines for rodent euthanasia after day 11 days of observation. After sacrifice, 500 mg sections of the tail were harvested for paraffin embedding and RNA extraction. For all in vivo experiments, housing, husbandry and experimentation were in strict accordance with the Animal Welfare Act and the Guide for the Care and Use of Laboratory Animals.
Sham surgery and normal controls were treated identically with the NSAID (n=8 per group), sTNF-R1 (n=11 per group), or PBS (n=11 normal controls, n=8 sham surgery controls).
Tail volume was measured serially in each mouse, using a digital photographic application of the truncated cone approximation as described.

Data set [4] deals with tail lymphedema in SKH-1 mice. Put plainly: Histology and histomorphometric quantitation of epidermal thickness (Example 4). Format: in vivo, mouse. The settings on record: for histological changes in mice with lymphedema: hematoxylin/eosin. The protocol:
Immediately after sacrifice, 0.5-g sections of tail were harvested for histological analysis and RNA extraction. Sections extended from a point 4 mm proximal to the surgical incision to 8 mm beyond it. The specimens were fixed overnight in 4% paraformaldehyde, embedded in paraffin, cut into 5-μm sections, stained with hematoxylin and eosin (Richard-Allan Scientific, Kalamazoo, Mich.), and examined by light microscopy.
Epidermal thickness was measured serially using digital images of histology slides stained with hematoxylin and eosin. Processing and analysis were performed using Adobe Photoshop CS4 and ImageJ (http://rsbweb.nih.gov/ij) as previously described with modifications (Sanders J E, et al. Comput Methods Programs Biomed. 1999; 59:167-180). Quantitative measurements were imported to Prism 5 software (GraphPad Software Inc., La Jolla, Calif.) for statistical analysis and graphing.

In data set [5] the test system is TNF-α, MCP-1, VEGF-C, VEGF-D, VEGFR-3, Prox1, LYVE-1 expression. Put plainly: Targeted gene expression analysis by quantitative real-time RT-PCR in tail skin. Format: in vivo, mouse. On the procedure: Primers and probes were from Assays-on-Demand (Applied Biosystems, Foster City, Calif.). cDNA was synthesized from 5 μg of total RNA with Taqman reverse-transcription reagents (Applied Biosystems) and amplified in triplicate at 50° C. for 2 minutes and 95° C. for 10 minutes, followed by 40 cycles of 95° C. for 15 seconds and 60° C. for 1 minute. Reactions without template and/or enzyme were used as negative controls. 18S ribosomal RNA served as an internal control. A standard curve derived from embryonic mouse RNA was plotted for each target gene by linear regression using SPSS software (v. 11.0, Applied Biosystems). RNA quantity was expressed relative to the corresponding 18S control. Fold differences were calculated by dividing the experimental results by the pooled normal results and were plotted on a log 10 scale.
On the technique in general: Quantitative PCR measures a nucleic acid by following its amplification.

Data set [6] has as its system cytokine levels in tail skin. Put plainly: Tissue cytokine assays (Luminex) in tail skin homogenates. Format: in vivo, mouse. On the procedure: Cytokine levels in tail skin were measured in normal controls and mice with untreated, NSAID-treated, and sTNF-R1-treated lymphedema (n=3 per group) sacrificed on postoperative day 7. The Luminex LabMap200 System was used to measure the levels of 42 cytokines from the supernatant of tissue homogenates. Multiplex cytokine kits were purchased from Panomics (Fremont, Calif.), and the assay was performed according to the manufacturer's recommendation with the following modifications: 25-50 μl of samples, standards, and controls were added in duplicate to 96-well filter plates pre-configured with a panel of anti-cytokine antibodies covalently linked to unique polystyrene beads. The plate was incubated overnight at 4° C. in the dark with shaking at 500 rpm, vacuum aspirated, and washed three times with 140 μl of wash buffer to remove unbound antigen. Biotinylated detection antibody solution (25 μl) was added to each well and incubated for 1 hour with shaking at 500 rpm at room temperature. The plate was incubated with 50 μl of streptavidin-phycoerythrin for 35 minutes and then with 120 μl of reading buffer for 3 minutes at room temperature with shaking. After laser excitation, digital images of the bead array were captured with a CCD camera and analyzed on a computer workstation with BeadView software.

Data set [7] has as its system post-surgical lymphedema in the tails of SKH-1 mice. The data set is described as follows: Tail volume quantitation, VEGF-C in experimental lymphedema (Example 3). Format: in vivo, mouse. The following applies: single subcutaneous dose of 200 ng on post-surgical day 3. On the procedure:
Post-surgical lymphedema was experimentally created in the tails of female hairless, immunocompetent SKH-1 mice (Charles River Laboratories, Boston Mass.) as described in example 1, above. Therapeutic VEGF-C lymphangiogenesis in experimental lymphedema. On post-surgical day 3, the treated animal subjects received parenteral recombinant human VEGF-C (R&D Systems Inc., Minneapolis, Minn.). Each animal received a single subcutaneous dose of 200 ng of the growth factor (2 mg/mL), equally divided between the proximal and distal wound edges. Untreated lymphedema subjects received subcutaneous saline analogously administered.
Tail volume was serially quantitated in 19 mice divided into four treatment categories: normal, untreated lymphedema, VEGF-C-treated lymphedema, and surgical sham controls. For animals who had surgical intervention, this was defined to have occurred on day 0. All of the mice had quantitation of baseline tail volume; thereafter, volume was quantitated at defined time points: days 2, 4, 7, 9, 11, 14, 16, 18, 21, 23 28, 35, 42, 50, 57, 63, 65, 67 and 71. […] A single digital image of each tail was recorded with an OLYMPUS D520 Zoom digital camera at 1600×1200SHQ resolution. […] The diameter of the tail was digitally, serially quantitated at distances of 8 mm beginning at the proximal end of the tail. […]

For data set [8] the test system is unchanged. Put plainly: Histology of tail sections (H&E), VEGF-C study. Format: in vivo, mouse. The following applies: day 11. The text has this:
For histological evaluation, 11 mice were sacrificed on Day 11 of observation. Immediately following sacrifice, 0.5 gm sections of the tail were harvested. Sections extended from a point 4 mm proximal to the surgical incision to 8 mm beyond it. The specimens were fixed overnight in 4% paraformaldehyde. After paraffin embedding, 5 μm sections were stained with hematoxylin and eosin (H&E, Richard-Allan Scientific). After deparaffinization in xylene, sections were rehydrated though a series of graded alcohol steps starting with 100% EtOH and ending in 50% EtOH. Slides remained in toluidine blue for 2 minutes and were then dehydrated through graded alcohol washes and covered with Cytoseal (Richard Allan Scientific).

Data set [9] has as its system LYVE-1-positive lymphatic vessels. The data set is described as follows: LYVE-1 immunohistochemical staining, lymphatic vessel number and area. The class given is in vivo, mouse. The protocol: 5 μm-thick paraffin sections were de-paraffinized in xylene, re-hydrated in a graded series of ethanol, pretreated with target retrieval solution (Dako, Carpinteria, Calif.) in a pressure cooker, and incubated in a peroxidase block for 10 minutes. Sections were then incubated with rabbit polyclonal anti-LYVE-1 antibody (1:200, Upstate Cell Signaling Solutions, Lake Placid, N.Y.) for 1 hour at room temperature, followed by horseradish peroxidase (HRP)-conjugated secondary antibody for 30 minutes at room temperature and detection with DAB for 4 minutes (Envision System Kit, Dako). Tissue sections were counterstained with Gill 1 Hematoxylin (Richard-Allan Scientific, Kalamazoo, Mich.). for 15 seconds, then dehydrated in graded ethanol and coverslipped with CoverSafe (American Master*Tech, Lodi, Calif.).
5 μm-thick paraffin sections were prepared and stained for LYVE-1 as described in example 1, above.
Mean lymphatic vessel number was determined by averaging the number of total lymphatic vessels in all of the fields of each slide at 10× magnification. The observer was blinded to the treatment status of the animal in each case. Lymphedema was characterized by an increase in LYVE-1-positive vessel number/field that was not observed in normals or after VEGF-C-treatment: lymphedema, 7.3±4.0 (P=0.02 compared to normal); VEGF-C, 1.3±0.9 (N.S.); and normal, 1.0±0.8.
Lymphatic vessel area was quantitated according to the formula π·r1·r2. […] Both vessel number and size returned substantially to normal following exogenous administration of recombinant VEGF-C.

The test system of data set [10] is clearance of luc+ splenocytes from lymphedematous tails of FVB/N mice. The data set is described as follows: Functional in vivo bioluminescence imaging of immune traffic, VEGF-C study. More on the design: species or system mouse. The protocol:
Experimental lymphedema was created surgically in the tails of 20 FVB/N female wild type mice (Jackson Laboratories, […]), using the technique described above, and functionally compared with normal mice (n=8). The lymphedematous mice were treated with human recombinant VEGF-C or with saline, as described above, on post-surgical day 3. For in vivo bioluminescence imaging, spleens from transgenic luc+ heterozygous animals, expressing firefly luciferase under the control of a chicken beta-actin promoter, as previously described (Beilhack et al., 2005; Cao et al., 2004), were placed into single cell suspension. These single cell suspensions consisted of different hematopoietic lineages: ˜40% were CD19+ B cells, ˜20% CD4+ T cells, ˜10-15% were CD8+ T cells, 3% NK1.1+ NK cells and the rest were GR.1+ granulocytes, Mac-1+ macrophages, CD11c+ dendritic cells and rarer cell populations. 4×10^6 splenocytes (>97% CD45+) in PBS were injected in a volume of […] into the tail interstitium/emission]×100%. 1 cm caudal to the site of surgery, in lymphedema mice and normal controls, respectively. […] The efficiency of cellular lymphatic drainage was determined by direct imaging of light emission, with quantitation of the relative change in light emission from that measured at 20 hours after cell injection, as follows: relative photon emission=[emissionday 7/emission20 hours]×100%.

“Also recorded” adds a separate entry of the source.

The source of these data is US8965708B2, “Method for the treatment of acquired lymphedema” (The Board of Trustees of the Leland Stanford Junior …, priority 2006, dated 2015).

On to `COC(=O)C(C)c1cccc(C(=O)c2ccccc2)c1` (centres unmarked) [ketoprofen methyl ester], for which the “Log Kow” value in [1] came to 3.65. In addition, the “ability to permeate the stratum corneum of human cadaver skin” value in data set [2] is given as “most penetration”.
Consider pegsunercept [sTNF-R1], for which the “tail volume, % of baseline” value in data set [3] (day 7, lymphedema mice, s.c. every other day from day 3) turned out to be 183.7±26.8%. In addition, the “edematous response (tail volume) of lymphedema mice” value in data set [3] (lymphedema mice, systemic s.c. treatment) is “significantly more edematous”. Further, the “effect on tail volume in normal and sham surgery mice” value in data set [3] (normal and sham surgery mice) is reported as “no discernable effect”. For the same molecule, in [4] (FIG. 14B), the “epidermal thickness (ET) compared to untreated LY mice” value was “significantly increased”. The “epidermal thickness increased, compared to untreated mice with lymphedema” value in data set [4] (day 11) was determined as 16.0±2.5%. For the same molecule, in data set [4] (day 11, listed as sTNFR1), the “histological changes in mice with lymphedema” value is on record as “no discernible amelioration”. In [4] (day 11, listed as sTNFR-1), the “histological changes in mice with lymphedema” value is on record as “exacerbates the pathology”. The “expression of other targeted genes (other than TNF-α)” value in data set [5] (day 11) is on record as “did not affect other genes”. The “TNF-α expression (mRNA)” value in [5] (day 11, lymphedema mice) was “reduced TNF-α expression to control levels; also recorded: downregulated”. In data set [5] (lymphedema mice), the “VEGF-C expression (mRNA)” value is “decreased” and the VEGFR-3 expression result was “decreased”. In data set [6] (postoperative day 7), the “MCP-1 tissue levels (protein)” value is on record as “further increased”, the “MCP-3 tissue levels (protein)” value is reported as “significantly reduced” and the eotaxin tissue levels result is given as “decreased”. Also, the “MCP-3 tissue levels (protein)” value in data set [6] (postoperative day 7, listed as sTNFR-1) is recorded as “inhibited”.
For `CC(C)OC(=O)C(C)c1cccc(C(=O)c2ccccc2)c1` (centres unmarked) [ketoprofen isopropyl ester], the “Log Kow” value in [1] was determined as 4.56.
Consider `CCOC(=O)C(C)c1cccc(C(=O)c2ccccc2)c1` (centres unmarked) [ketoprofen ethyl ester], for which the “Log Kow” value in data set [1] is 4.14.

B1: VEGF-C: parenteral recombinant human VEGF-C (R&D Systems Inc.), growth factor (protein, UniProt P49767 112-227, looked up)
Vascular endothelial growth …: AHYNTEILKSIDNEWRKTQCMPREVCIDVGKEFGVATNTFFKPPCVSVYRCGGCCNSEGLQCMNTSTSYLSKTLFEITVPLSQGPKPVTISFANHTSCRCMSKLDVYRQVHSIIRR
For the molecule B1, the “mean tail volume compared with untreated lymphedema” value in data set [7] was “significant decrease in volume; also recorded: diminution in the mean tail volume; also recorded: volume reduction, compared with untreated lymphedema, was evident by day 7”. The “histological pattern of tail tissue” value in [8] is “substantial reversion to the normal pattern”. This molecule registered an LYVE-1-positive vessel number/field in data set [9] (10x magnification, day 11) of 1.3±0.9. Further, the “average lymphatic area/field (LYVE-1-positive vessel area)” value in [9] (formula π·r1·r2, n=3) is 2992±1311 μm^2. Also, the “size and number of LYVE-1-positive skin lymphatics” value in [9] (vs untreated lymphedema) is “reduction in the observed size and number of these skin lymphatics; also recorded: reduction in the number and size of LYVE-1-positive vessels”. Further, the “clearance of bioluminescent immunocytes (immune traffic)” value in data set [10] (day 7 post-injection) is reported as “ameliorated”. Also, in data set [10] (day 7 post-injection (post-operative day 14), n=12), the “relative photon density, % of the observed value 20 hours post-injection” value is reported as 24±9%.
